Measurements: patent US20040028749A1, “Treating inflammation and associated complications” (priority 2000, published 2004)

Columns and labels:
human EOs [1] = assay: EO-mediated nitration and bromination of HPA; assay type: cell-based; conditions: PMA-activated EOs; for EO-mediated nitration of HPA: 50 μM NO2^−, 100 μM Br^−
Method: (§1) These studies were performed in the presence of CO2 (5% gas phase) and […] the medium (4.2 mM) to mimic a biologically relevant situation. Leukocytes ([…]) were incubated at 37° C. under 95% air, 5% CO2, in Medium A (Ca^2+/Mg^2+/phenol-free HBSS; Life Technologies, (Gaithersburg, Md.) supplemented with 100 μM NaBr, 50 μM L-arginine, and 200 μM DTPA, pH 7.4 final) in the absence or presence of NaNO2 (0<50 μM, as indicated in the figure legends). […] Cells were activated by addition of PMA (200 nM) and incubated for either 1 hour or the indicated time interval. In some experiments, EOs were activated in the presence of an exogenous NO source by addition of PAPA NONOate (Alexis) for 1 minute following PMA addition. Rates of NO flux were determined spectrophotometrically by reaction of NO with oxyhemoglobin as described in Baek et al. (Baek et al. (1993) J Biol Chem 268:21120) under the identical conditions used for experiments, but in the absence of any added cells. To maintain a final pH of 7.4 during experiments with PAPA NONOate, incubations were performed in Medium B (Medium A containing only 100 mM NaCl and supplemented with 20 mM sodium phosphate, pH 7.4). […] In some cases, leukocyte reaction mixtures also contained one of the following: 1 mM NaN3, 10 mM 3-aminotriazole (Atz), 300 nM catalase (Cat), 300 nM heat-inactivated catalase (hiCat), 10 μg/ml superoxide dismutase (SOD), 1 mM methionine (Met), or 1 mM N^α-acetyl lysine.
(§2) NO2—Y production by isolated EOs was quantified by reversed phase HPLC with photodiode array detection (see Wu et al. (1999) J Biol Chem 274:25933). […] The nitrated (NO2-HPA; 3-(4-hydroxy-3-nitrophenyl)propanoic acid), brominated (Br-HPA; 3-(3-bromo-4-hydroxyphenyl)propanoic acid), and chlorinated (Cl-HPA; 3-(3-chloro-4-hydroxyphenyl)propanoic acid) products of the tyrosine analog, HPA, were routinely quantified by reversed phase HPLC with electrochemical (coulometric) detection on an ESA CoulArray HPLC (Cambridge, Mass.) equipped with UV detector and electrochemical cells (eight channels) (Wu et al. (1999) J Biol Chem 274:25933). […] Authentic standards of NO2-HPA, Br-HPA, and Cl-HPA were prepared by reaction of HPA with a molar equivalent of ONOO^−, HOBr, or HOCl, respectively.
Use of this low molecular mass surrogate for a protein-bound tyrosine residue permitted more facile quantification of the relative capacity of EOs to promote aromatic nitration and halogenation reactions of phenolic targets.

[2] = intranasal 1 mM SCN^−, 1 mM Br^− or 100 μM NO2^−
Method: The following experiment is performed to determine if by directly manipulating the relative substrate halide composition of the intrabronchial luminal contents, the severity of the resulting EPO-mediated oxidative damage and so the severity of the induced pathologies can be influenced. […] From the day before initiation of aerosol ovalbumin challenge, four groups of guinea pigs (n=15) are subjected to intranasal instillation of 300 μL of PBS (100 mM Cl^−), PBS+1 mM NaSCN, PBS+1 mM NaBr, or PBS+100 μmol NaNO2 in each nostril. Intranasal instillation is performed every 6 hours until the time of analysis. The numbers of animals in each group is determined from power calculations assuming unpaired design. A group size of 15 animals per group allows for detecting a change in Br—Y, PC50, and histologic severity index amongst the OVA-challenged animal of ≧125% of the S.D. of the experimental groups with 90% power, P<0.05.
As for Section VI, Example 10, pulmonary functions, and chloro-, bromo-, and NO2—Y in BAL and whole lung homogenates are determined. […] Multiple linear regression is used to determine factors responsible for changes in PC50 or histologic severity of airway damage. PC50 or histologic severity is treated as a continuous variable and correlated Br—Y and NO2—Y levels in BAL and whole lung by multiple regression.

EPO [3] = biological target: T1, EPO (Homo sapiens, UniProt P11678); conditions: physiologic concentrations (20-120 μM) of SCN^−; 100 μM Br, 100 mM Cl^−
Description: All other reagents were obtained from Sigma Chemical Co. (St. Louis, Mo.).

LPO, or EPO = conditions: 100 μM SCN^−, LPO or EPO present
[4] = wild type mouse
Method: Mice were sensitized by intranasal instillation of Aspergillus and aeroallogen challenged one month later with aerosol saline (control) or Aspergillus (antigen challenged). At 2 days before the one-month aeroallogen challenge, one group of antigen-challenged animals received i.p. 0.5 mL of 0.1% KSCN and 0.1% KSCN in drinking water. Three days after the aeroallogen challenge, both groups were challenged with intranasal inoculums of Candida and 6 hours later subjected to BAL and the content of supernatant protein Br—Y determined using stable isotope dilution GC-MS.

EPO or LPO = conditions: O2^.− generating system
Method: NO decay was determined in phosphate buffer in the absence versus presence of plasma levels of halides using an NO-selective electrode. NO-saturated buffer was added to a continuously stirred reaction mixture.

[5] = SCN^− supplementation
Method: Four experimental groups, each comprised of 15 guinea pigs are utilized for these studies.
The first group is the control and receives KCl in lieu of KClO4 to control for the effect of potassium. […] Perchlorate treatments are initiated three days prior to OVA aerosol challenges and maintained throughout the experimental period until the time of analysis. Specimens are analyzed according to the protocol described. The experimental groups are compared using an appropriate statistical method (i.e., parametric or non-parametric) based upon ANOVA.
All four groups are then pooled to determine correlations between (i) methacholine challenge PC50 and (ii) BAL and whole lung Br—Y and NO2—Y levels. Correlations were also determined between (i) histologic severity and (ii) BAL and/or whole lung Br—Y and NO2—Y levels.

EPO [6] = test system: EPO
Method: The EPO/NO2^−/H2O2 system generates reactive nitrogen species that generates bioactive eicosanoids, e.g. hydroxyeicosatetraenoic acids (HETEs) from unilamellar vesicles comprised of 1-palmitoyl-2-arachidonyl-sn-glycero-3-phosphocholine (PAPC). […] Reaction mixtures consisting of 0.8 mg lipid/mL PAPC, 60 nM EPO, 100 μM NO2^−, 100 ng/mL glucose oxidase, 100 μg/mL glucose were incubated for 2 hours at 37° C. HETEs were analyzed by lipid extraction and HPLC with on-line electrospray ionization tandem mass spectometry (LC/MS/MS).

[7] = test system: S. mansoni schistosomules; assay: Toxicity of hypohalous acids for schistosomules; assay type: cell-based; conditions: for toxicity for the parasite relative to host cells: schistosomules vs mammalian cells; for LD50 for schistosomules: two hours exposure
Method: (§3) To determine how generation of HOSCN subserves the physiological function of EOs, i.e., to destroy tissue-invasive parasites, the following experiment was performed. Reagent grade HOSCN was generated by (i) adding human EPO (10 μg/mL) and 1 mM NaSCN to Hank's buffer, (ii) adding five 100 μM boluses of H2O2 at 3 minute intervals, (iii) adding 20 μg/mL of catalase to consume unreacted H2O2, and (iv) removing protein by filtration through a PM-10 membrane (Amicon). HOSCN was then assayed by TNB titration. Mammalian cells used included cultured human and porcine aortic endothelium, rat cardiac myocytes, P338D1 murine lymphoma, and RBCs. Freshly transformed S. mansoni schistosomules (obtained from James Kazura at Case Western University) were also used. Both were exposed to reagent HOSCN for two hours, then assayed for cytotoxicity by (i) ^51Cr release, (ii) hemolysis (mammalian cells) or (iii) light microscopy observations of granularity, lack of motion, and methylene blue dye exclusion (somules). Results in Table 1 indicate that HOSCN killed both schistosomules and host cells. Whereas HOCl and HOBr were equally toxic for host cells and somules, HOSCN was 10-15 times more toxic for the parasite.

mammalian cells = assay: Cytotoxicity of hypohalous acids for mammalian cells (51Cr release, hemolysis); assay type: cell-based; conditions: two hours exposure
Method: as §3

Human RBCs = assay: OSCN^−/OCN^− effects on intact RBC glutathione, enzymes and hemolysis; assay type: cell-based; conditions: lysates and membranes of RBCs exposed to 100 μM OSCN^−/OCN^−; 10 mM DTT
Method: After 30 minutes, cells were pelleted by centrifugation at 2000×g for 3 minutes and washed three times in ice-cold HEPES/Hanks' (H & H) buffer. […] RBC lysates and membranes were then prepared by hypotonic lysis and assayed for glutathione and glyceraldehyde-3-phosphate dehydrogenase (GAPDH), glutathione-S-transferase (GST), and lactate dehydrogenase (LDH) activity as described by Beutler (see Beutler (1974) Red Cell Metabolism A Manual of Biochemical Methods Grune and Stratton, Inc., Orlando, Fla.) and for ATPase activity as described below. Hemolysates were incubated for an additional 15 minute with or without 10 mM DTT and reassayed for GAPDH, GST, and ATPases.
Intracellular levels of the SH-containing oxidant scavenger glutathione were assayed. In addition, the activities of three enzymes, GST, GAPDH, and membrane ATPases, which are known to be vulnerable to SH-oxidation-based inactivation, as well as LDH which is not prone to such inactivation were assayed.

MPO = MPO (Homo sapiens, UniProt P05164); conditions: pre-incubation of the enzyme solution
Method: Initial experiments utilized an NO-selective electrode (ISO-NO Mark II, World Precision Instruments, Sarasota, Fla.) to determine whether NO serves as a general substrate for peroxidases. Reactions were performed under conditions where peroxidases were present in catalytic amounts Experiments were performed at 25° C. by immersing the electrode in 10 mL of 0.2 M sodium phosphate buffer, pH 7.0, under air. NO was added to continuously stirred buffer solution from an NO-saturated stock and the rise and fall in NO concentration was continuously monitored using a chart recorder. To determine the effect of H202 and peroxidases on NO levels during steady state catalysis, 10 μl H202 (100 μM final) and 50 μL enzyme (150 nM final) were added to the reaction mixture. Where indicated, solutions were supplemented with NaCl (100 mM) and/or a cell-free O2^.−-generating system comprised of lumazine (0.4 mm) and bovine milk xanthine oxidase (XO, Boehringer Mannheim).
To examine the potential physiological significance of these observations, the effect of additional substrates on peroxidase-catalyzed consumption of NO was examined. MPO was initially used as a model peroxidase because of its abundance at sites of leukocyte recruitment and activation during inflammation and its well-known use of the abundant halide Cl^− as substrate.

EPO [8] = biological target: T1, EPO
Method: To determine the relative time courses of HOSCN and cyanate generation, H2O2 was added to a reaction mixture containing phosphate buffered saline (PBS) with 1 mM KSCN, pH 7.4, and 0.4 μM EPO. H2O2 was added by continuous infusion at 50 μM/minute for 20 minutes to simulate the continuous generation of H2O2 by the respiratory burst of an activated EO. An aliquot was (i) removed from the reaction mixture prior to and at various time intervals after initiating addition of H2O2, (ii) supplemented with 40 μg/mL catalase to consume unreacted H2O2, and (iii) placed on ice until subsequent assay of oxidants and cyanate as described.
H2O2 was continuously infused at 50 μM/minute for 20 minutes, simulating the continuous generation of H2O2 by the respiratory burst of an activated EO. Aliquots were removed from the reaction mixture at one-minute intervals and catalase was added to destroy excess unreacted H2O2 prior to assay of TNB-reactive substances and cyanate.

activated human EOs = conditions: 5 mM azide
Method: Purified EOs were washed, suspended at 4×10^6/mL in a modified Hank's balanced salt solution composed of 5.3 mM KCl, 138 mM NaCl, 0.4 mM potassium phosphate, 5.3 mM sodium phosphate, 5.5 mM D-glucose, 1.3 mM CaCl2, and 0.5 mM MgCl2, pH 7.4 supplemented with 1 mM KSCN. EOs were divided into three groups that were supplemented with (i) nothing (control), (ii)1 μg/mL phorbol 12-myristate 13-acetate (PMA), or (iii) 1 μg/mL PMA and 5 mM azide. EOs were then incubated at 37° C. for 60 minutes in capless 5 mL round-bottom tubes. The tubes were vortexed every 15 minutes to aid oxygenation. After the incubation, the samples were centrifuged for 10 minutes, 1000×g at 4° C. The supernatants were placed in Microcon concentrators (Amicon, Mass.) with membranes of 3000 Dalton molecular weight cut off and centrifuged for 30 minutes, 13,000×g at 4° C. to remove degranulated proteins. The filtrates were assayed for HOSCN and cyanate quantities.
As a gauge of the potential physiologic relevance of the above findings—all made with a purified reagent system—intact, activated human EOs were examined to determine whether HOSCN and OCN^− are generated. […]

activated EOs = assay: NO2-HPA formation by activated EOs with exogenous NO donor; assay type: cell-based, human
Method: as §1, §2

RBC ATPases = assay: Oxidant inactivation of RBC membrane ATPase activity; assay type: biochemical, human; conditions: even at 1 mM
Description: Membrane preparations rather than intact RBC were used to allow all oxidants equal access to intra- and extracellular membrane components.

human EOs [9] = assay: NO2—Y formation by activated human EOs; assay type: cell-based; conditions: agonist 100 nM, exogenous NO2^−
Method: as §1, with “HBSS;” for “HBSS; Life Technologies, (Gaithersburg, Md.) supplemented with 100 μM NaBr, 50 μM L-arginine, and 200 μM DTPA, pH 7.4 final) in the absence or presence of NaNO2 (0<50 μM, as indicated in the figure legends).”, “NO2—Y production by isolated EOs was quantified by reversed phase HPLC with photodiode array detection (see Wu et al. (1999) J Biol Chem 274:25933). […]” for “In some cases, leukocyte reaction mixtures also contained one of the following: 1 mM NaN3, 10 mM 3-aminotriazole (Atz), 300 nM catalase (Cat), 300 nM heat-inactivated catalase (hiCat), 10 μg/ml superoxide dismutase (SOD), 1 mM methionine (Met), or 1 mM N^α-acetyl lysine.”

[10] = high rates of NO flux (>2 μM/min)
[11] = low rates of NO flux (<2 μM/min)

T1 sequence (P11678 251-715 limits assumed): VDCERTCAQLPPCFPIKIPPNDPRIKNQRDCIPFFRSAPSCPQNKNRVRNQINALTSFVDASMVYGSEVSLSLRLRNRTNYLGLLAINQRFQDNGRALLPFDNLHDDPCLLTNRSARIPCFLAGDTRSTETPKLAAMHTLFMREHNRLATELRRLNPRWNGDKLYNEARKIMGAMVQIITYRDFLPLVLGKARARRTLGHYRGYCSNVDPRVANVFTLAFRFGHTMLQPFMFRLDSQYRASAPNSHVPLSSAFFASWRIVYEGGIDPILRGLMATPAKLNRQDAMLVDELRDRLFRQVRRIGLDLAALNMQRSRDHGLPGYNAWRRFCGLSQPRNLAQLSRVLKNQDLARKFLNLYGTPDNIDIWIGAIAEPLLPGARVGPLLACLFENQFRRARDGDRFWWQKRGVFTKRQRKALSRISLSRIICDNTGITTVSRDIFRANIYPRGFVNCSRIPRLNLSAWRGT
T1 sequence (P11678 140-250 limits assumed): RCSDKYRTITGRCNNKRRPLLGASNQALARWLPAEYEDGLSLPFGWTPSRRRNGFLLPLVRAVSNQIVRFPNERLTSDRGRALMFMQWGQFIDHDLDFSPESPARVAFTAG
Sequence of MPO (P05164 279-745 limits assumed): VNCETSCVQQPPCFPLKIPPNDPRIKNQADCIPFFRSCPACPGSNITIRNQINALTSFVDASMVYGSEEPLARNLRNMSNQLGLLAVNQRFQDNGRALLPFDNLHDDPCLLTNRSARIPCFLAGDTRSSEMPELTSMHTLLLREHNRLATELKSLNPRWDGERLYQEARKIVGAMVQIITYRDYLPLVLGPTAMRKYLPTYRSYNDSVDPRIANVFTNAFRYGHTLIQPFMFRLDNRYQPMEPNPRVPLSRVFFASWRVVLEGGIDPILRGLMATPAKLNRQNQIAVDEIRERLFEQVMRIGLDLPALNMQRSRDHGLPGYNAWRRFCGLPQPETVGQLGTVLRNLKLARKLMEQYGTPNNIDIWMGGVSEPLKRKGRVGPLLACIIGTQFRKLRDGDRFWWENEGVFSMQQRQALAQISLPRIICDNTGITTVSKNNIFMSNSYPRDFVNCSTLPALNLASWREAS
Sequence of MPO (P05164 165-273 limits assumed): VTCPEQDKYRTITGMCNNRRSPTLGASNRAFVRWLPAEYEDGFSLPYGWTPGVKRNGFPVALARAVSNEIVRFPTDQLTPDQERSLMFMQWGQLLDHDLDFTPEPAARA

CSCC[C@H](N)C(=O)O [methionine]
EO-mediated nitration of HPA (human EOs [1]): inability of the HOBr scavenger methionine to affect nitration

N#CS [SCN^−, thiocyanate]
levels of Br—Y and NO2—Y and severity of resulting asthma [2]: ameliorates
EPO production of HOBr (EPO [3]): blocked
relaxation of preconstricted bronchial rings in response to NO (LPO, or EPO): do so when high physiologic concentrations of SCN^− are added
BrY reduced from w.t. antigen-challenged ([4]; SCN supplemented): BrY 86% reduced
Lavage fluid bromotyrosine ([4]; antigen challenge, 0.1% KSCN i.p. and in drinking water): 196 ± 103 μmol Br—Y/μmol Y
peroxidase-mediated NO consumption (EPO or LPO): attenuation/inhibition of peroxidase-mediated NO consumption
Br—Y and NO2—Y levels, functional and histologic pulmonary pathology [5]: will reduce
mean lung Br—Y/Y (NaSCN i.p. and 0.2% in drinking water, OVA challenge): 0.93 mmol/mol
rise of Br—Y/Y after OVA challenge (dietary supplementation with SCN^− prior to OVA challenge): completely abrogated
HETE generation from PAPC vesicles by EPO/SCN^−/H2O2 system (EPO [6]; 100 μM SCN^−): no detectable HETEs
HETE generation from PAPC vesicles by EPO/NO2^−/H2O2 system (EPO [6]; physiological concentration of SCN^−): severely attenuated

O=NO [NO2^−, nitrite]
levels of Br—Y and NO2—Y and severity of resulting asthma [2]: increase

OBr [HOBr, hypobromous acid]
toxicity for the parasite relative to host cells [7]: equally toxic
LD50 for schistosomules [7]: 10 µM
LD50 for mammalian cells (mammalian cells): 10 to 33 µM

Br [Br^−, bromide]
levels of Br—Y and NO2—Y and severity of resulting asthma [2]: increase

O[C@H](CS)[C@H](O)CS (racemic) [DTT, dithiothreitol]
GST, GAPDH and ATPase activity after OSCN^−/OCN^− exposure (Human RBCs): completely restored the activities of all three enzymes

OCl [HOCI, hypochlorous acid]
toxicity for the parasite relative to host cells [7]: equally toxic
LD50 for schistosomules [7]: 10 µM
LD50 for mammalian cells (mammalian cells): 10 to 33 µM

[N-]=[N+]=[N-].[Na+] [azide, sodium azide]
NO consumption by MPO (MPO): prevented
generation of both HOSCN and OCN^− (EPO [8]; azide 1 mM): nearly completely blocked
HOSCN levels at plateau stage of progression curve (EPO [8]; azide added during H2O2 infusion): abrupt collapse of HOSCN levels
PMA-stimulated generation of HOSCN and OCN^− (activated human EOs): severely attenuated
EO-mediated nitration of HPA (human EOs [1]): inhibited
NO2-HPA formation (activated EOs; [10]): increasingly less sensitive to inhibition
NO2-HPA formation (activated EOs; [11]): inhibited

N#CSO [HOSCN]
toxicity for the parasite relative to host cells [7]: 10-15 times
LD50 for schistosomules [7]: 20 µM
LD50 for mammalian cells (mammalian cells): 200 to 300 µM

OO [H2O2, hydrogen peroxide]
inactivation of RBC ATPases (RBC ATPases): failed to inactivate ATPases

CC(=O)N[C@@H](CCCCN)C(=O)O [N-acetyl lysine, N^α-acetyl lysine]
cell-dependent bromination of HPA (human EOs [1]): lack of inhibition

CSCC[C@H](NC=O)C(=O)N[C@@H](CC(C)C)C(=O)N[C@@H](Cc1ccccc1)C(=O)O [N-formyl-methionyl-leucyl-phenylalanine]
NO2—Y levels produced, less than with PMA-stimulated EOs (human EOs [9]): 8 fold

B1: catalase: hydrogen peroxide scavenger (protein, UniProt P00432 2-527, looked up)
Catalase: ADNRDPASDQMKHWKEQRAAQKPDVLTTGGGNPVGDKLNSLTVGPRGPLLVQDVVFTDEMAHFDRERIPERVVHAKGAGAFGYFEVTHDITRYSKAKVFEHIGKRTPIAVRFSTVAGESGSADTVRDPRGFAVKFYTEDGNWDLVGNNTPIFFIRDALLFPSFIHSQKRNPQTHLKDPDMVWDFWSLRPESLHQVSFLFSDRGIPDGHRHMNGYGSHTFKLVNANGEAVYCKFHYKTDQGIKNLSVEDAARLAHEDPDYGLRDLFNAIATGNYPSWTLYIQVMTFSEAEIFPFNPFDLTKVWPHGDYPLIPVGKLVLNRNPVNYFAEVEQLAFDPSNMPPGIEPSPDKMLQGRLFAYPDTHRHRLGPNYLQIPVNCPYRARVANYQRDGPMCMMDNQGGAPNYYPNSFSAPEHQPSALEHRTHFSGDVQRFNSANDDNVTQVRTFYLKVLNEEQRKRLCENIAGHLKDAQLFIQKKAVKNFSDVHPEYGSRIQALLDKYNEEKPKNAVHTYVQHGSHLSAREKANL
EO-mediated nitration of HPA (human EOs [1]): inhibited
NO2-HPA formation (activated EOs; [10]): increasingly less sensitive to inhibition
NO2-HPA formation (activated EOs; [11]): significantly attenuated
